# Patent US9895342B2, “Cannabinoids for use in the treatment of neuropathic pain” (GW Pharma Limited, priority 2011, dated 2018)
# Tested on: SNI mice
# Experiment: Thermal hyperalgesia (Plantar Test Apparatus, paw withdrawal latency) in spared nerve injury mice
# Format: in vivo
# Conditions: 2.5 mg/kg
# Experimental: (§1) Peripheral neuropathic pain is produced by multiple etiological factors that initiate a number of diverse mechanisms at different sites and in different disease states. Spared nerve injury (SNI) consists of partial ligation and transaction of the sciatic nerve which evolves in neuropathic pain whose typical manifestations are represented by thermal hyperalgesia and tactile allodynia.
# (§2) Chronic pain symptoms are measured through changes in thermoceptive responses (which is indicative of thermal hyperalgesia) using Plantar Test Apparatus (Ugo Basile, Varese, Italy) and in mechanical paw withdrawal threshold (which is indicative of mechanical allodynia) by a Dynamic Plantar Aesthesiometer (Ugo Basile, Varese, Italy). Nociceptive responses were measured before and after surgery in groups of mice differently treated (vehicle or drugs different combinations).
# (§3) The cannabinoids tested were CBG, CBC, CBDV, and THCV. […] The cannabinoids were prepared from whole plant extracts of cannabis plants which had been purified. The cannabinoids were dissolved in ringer/0.5% dimethyl sulfoxide (DMSO), for intraperitoneal (i.p.) administration.
# (§4) Male CD-1 mice (35-40 g) were housed, 3 per cage, under controlled illumination (12:12 h light:dark cycle; light on 06.00 h) and environmental conditions (room temperature 20-22° C., humidity 55-60%) for at least 1 week before the commencement of experiments. Mouse chow and tap water were available ad libitum. The experimental procedures were approved by the Ethic Committee of the Second University of Naples. Animal care was in compliance with the IASP and European Community (E.C. L358/1 18/12/86) guidelines on the use and protection of animals in experimental research. All efforts were made to minimize animal suffering and to reduce the number of animals used.
# (§5) Behavioural testing was performed before surgery to establish a baseline for comparison with post-surgical values. Mononeuropathy was induced according to the method of Bourquin and Decosterd (2006).
# (§6) Mice were anaesthetized with sodium pentobarbital (60 mg/kg i.p.). The right hindlimb was immobilized in a lateral position and slightly elevated. Incision was made at mid-thigh level using the femur as a landmark. The sciatic nerve was exposed at mid-thigh level distal to the trifurcation and freed of connective tissue; the three peripheral branches (sural, common peroneal, and tibial nerves) of the sciatic nerve were exposed without stretching nerve structures.
# (§7) Both tibial and common peroneal nerves were ligated and transacted together. A micro-surgical forceps with curved tips was delicately placed below the tibial and common peroneal nerves to slide the thread (5.0 silk, Ethicon, Johnson, and Johnson Intl, Brussels, Belgium) around the nerves. A tight ligation of both nerves was performed. The sural nerve was carefully preserved by avoiding any nerve stretch or nerve contact with surgical tools. Muscle and skin were closed in two distinct layers with silk 5.0 sutures.
# (§8) Intense, reproducible and long-lasting thermal hyperalgesia and mechanical allodynia-like behaviors are measurable in the non-injured sural nerve skin territory. The SNI model offers the advantage of a distinct anatomical distribution with an absence of co-mingling of injured and non-injured nerve fibers distal to the lesion such as the injured and non-injured nerves and territories can be readily identified and manipulated for further analysis (i.e. behavioral assessment).
# (§9) The sham procedure consisted of the same surgery without ligation and transection of the nerves.
# (§10) The groups of mice were divided as follows, each cannabinoid tested has its own group of mice:
# (§11) The cannabinoids were dosed daily for 14 days. Doses for all cannabinoids tested were: 2.5 and 5.0 mg/Kg. Vehicle solution was 0.5% DMSO in ringer solution.
# Thermal hyperalgesia was evaluated by using a Plantar Test Apparatus (Ugo Basile, Varese, Italy). […]
row,Compound,"overall efficacy, thermal withdrawal"
1,"C=C(C)[C@@H]1CCC(C)=C[C@H]1c1c(O)cc(CCC)cc1O [CBDV, cannabidivarin]",good efficacy
2,"C=C(C)[C@@H]1CCC(C)=C[C@H]1c1c(O)cc(CCCCC)cc1O [CBD, cannabidiol, reference compound]",relatively ineffective

# Same assay, conditions: 5.0 mg/kg
row,Compound,"overall efficacy, thermal withdrawal"
1,"C=C(C)[C@@H]1CCC(C)=C[C@H]1c1c(O)cc(CCC)cc1O [CBDV, cannabidivarin]",most effective

# Same assay, conditions: 5.0 mg/kg, 14 days
row,Compound,THERMAL WITHDRAWAL LATENCY
1,"C=C(C)[C@@H]1CCC(C)=C[C@H]1c1c(O)cc(CCC)cc1O [CBDV, cannabidivarin]",large increase

# Same assay, conditions: 5.0 mg/kg, day 3
row,Compound,THERMAL WITHDRAWAL LATENCY
1,"C=C(C)[C@@H]1CCC(C)=C[C@H]1c1c(O)cc(CCCCC)cc1O [CBD, cannabidiol, reference compound]",able to increase the amount of time before the animal withdrew its paw

# Same assay, conditions: 2.5 vs 5 mg/kg
row,Compound,dose-dependence of effect on thermal withdrawal latency
1,"C=C(C)[C@@H]1CCC(C)=C[C@H]1c1c(O)cc(CCC)cc1O [CBDV, cannabidivarin]",dose-dependent effects were observed
2,"C=C(C)[C@@H]1CCC(C)=C[C@H]1c1c(O)cc(CCCCC)cc1O [CBD, cannabidiol, reference compound]",do not appear to be dose-dependent

# Same assay, conditions: SNI mice, 2.5 mg/kg i.p. daily, DAY 3
row,Compound,THERMAL WITHDRAWAL LATENCY [s]
1,"C=C(C)[C@@H]1CCC(C)=C[C@H]1c1c(O)cc(CCC)cc1O [CBDV, cannabidivarin]",3.8
2,"C=C(C)[C@@H]1CCC(C)=C[C@H]1c1c(O)cc(CCCCC)cc1O [CBD, cannabidiol, reference compound]",3.5

# Same assay, conditions: SNI mice, 2.5 mg/kg i.p. daily, DAY 7
row,Compound,THERMAL WITHDRAWAL LATENCY [s]
1,"C=C(C)[C@@H]1CCC(C)=C[C@H]1c1c(O)cc(CCC)cc1O [CBDV, cannabidivarin]",6.4
2,"C=C(C)[C@@H]1CCC(C)=C[C@H]1c1c(O)cc(CCCCC)cc1O [CBD, cannabidiol, reference compound]",4.2

# Same assay, conditions: SNI mice, 2.5 mg/kg i.p. daily, DAY 14
row,Compound,THERMAL WITHDRAWAL LATENCY [s]
1,"C=C(C)[C@@H]1CCC(C)=C[C@H]1c1c(O)cc(CCC)cc1O [CBDV, cannabidivarin]",6.5
2,"C=C(C)[C@@H]1CCC(C)=C[C@H]1c1c(O)cc(CCCCC)cc1O [CBD, cannabidiol, reference compound]",5.6

# Same assay, conditions: SNI mice, 5 mg/kg i.p. daily, DAY 3
row,Compound,THERMAL WITHDRAWAL LATENCY [s]
1,"C=C(C)[C@@H]1CCC(C)=C[C@H]1c1c(O)cc(CCC)cc1O [CBDV, cannabidivarin]",4.0
2,"C=C(C)[C@@H]1CCC(C)=C[C@H]1c1c(O)cc(CCCCC)cc1O [CBD, cannabidiol, reference compound]",5.8

# Same assay, conditions: SNI mice, 5 mg/kg i.p. daily, DAY 7
row,Compound,THERMAL WITHDRAWAL LATENCY [s]
1,"C=C(C)[C@@H]1CCC(C)=C[C@H]1c1c(O)cc(CCC)cc1O [CBDV, cannabidivarin]",7.2
2,"C=C(C)[C@@H]1CCC(C)=C[C@H]1c1c(O)cc(CCCCC)cc1O [CBD, cannabidiol, reference compound]",7.0

# Same assay, conditions: SNI mice, 5 mg/kg i.p. daily, DAY 14
row,Compound,THERMAL WITHDRAWAL LATENCY [s]
1,"C=C(C)[C@@H]1CCC(C)=C[C@H]1c1c(O)cc(CCC)cc1O [CBDV, cannabidivarin]",11.0
2,"C=C(C)[C@@H]1CCC(C)=C[C@H]1c1c(O)cc(CCCCC)cc1O [CBD, cannabidiol, reference compound]",7.5

# Same assay, conditions: thermal withdrawal data
row,Compound,ability to treat neuropathic pain compared with CBD
1,"C=C(C)[C@@H]1CCC(C)=C[C@H]1c1c(O)cc(CCC)cc1O [CBDV, cannabidivarin]",superior to CBD

# Tested on: chronic constriction injury of the rat sciatic nerve
# Experiment: not given
# Conditions: administered as a purified compound; Costa et al., 2004; cited from earlier work
row,Compound,relief of neuropathic pain
1,"C=C(C)[C@@H]1CCC(C)=C[C@H]1c1c(O)cc(CCCCC)cc1O [CBD, cannabidiol, reference compound]",can partially relieve neuropathic pain

# Tested on: patients
# Experiment: not given
# Conditions: in 7% of patients; cited from earlier work
row,Compound,decrease in white blood cell count [%]
1,NC(=O)N1c2ccccc2C=Cc2ccccc21 [carbamezepine],25

# Same assay, conditions: post-marketing studies, patients taking carbamezepine; cited from earlier work
row,Compound,increase in the risk of blood dyscrasias
1,NC(=O)N1c2ccccc2C=Cc2ccccc21 [carbamezepine],five- to eight-fold

# Tested on: SNI mice
# Experiment: Mechanical allodynia (Dynamic Plantar Aesthesiometer, paw withdrawal threshold) in spared nerve injury mice
# Format: in vivo
# Conditions: 2.5 mg/kg, day 3
# Experimental: as §1, §2, §3, §4, §5, §6, §7, §8, §9, §10, §11
# Mechanical allodynia was measured by using Dynamic Plantar Anesthesiometer (Ugo Basile, Varese, Italy). […]
row,Compound,mechanical withdrawal latency
1,"C=C(C)[C@@H]1CCC(C)=C[C@H]1c1c(O)cc(CCC)cc1O [CBDV, cannabidivarin]",dramatic increase

# Same assay, conditions: 5.0 mg/kg, day 7 to day 14
row,Compound,"mechanical withdrawal, course over time"
1,"C=C(C)[C@@H]1CCC(C)=C[C@H]1c1c(O)cc(CCCCC)cc1O [CBD, cannabidiol, reference compound]",large increase at day 7; however this latency decreased again at the 14 day time point

# Same assay, conditions: SNI mice, 2.5 mg/kg i.p. daily, DAY 3
row,Compound,MECHANICAL WITHDRAWAL THRESHOLD [g]
1,"C=C(C)[C@@H]1CCC(C)=C[C@H]1c1c(O)cc(CCC)cc1O [CBDV, cannabidivarin]",6.8
2,"C=C(C)[C@@H]1CCC(C)=C[C@H]1c1c(O)cc(CCCCC)cc1O [CBD, cannabidiol, reference compound]",2.2

# Same assay, conditions: SNI mice, 2.5 mg/kg i.p. daily, DAY 7
row,Compound,MECHANICAL WITHDRAWAL THRESHOLD [g]
1,"C=C(C)[C@@H]1CCC(C)=C[C@H]1c1c(O)cc(CCC)cc1O [CBDV, cannabidivarin]",7.0
2,"C=C(C)[C@@H]1CCC(C)=C[C@H]1c1c(O)cc(CCCCC)cc1O [CBD, cannabidiol, reference compound]",4.8

# Same assay, conditions: SNI mice, 2.5 mg/kg i.p. daily, DAY 14
row,Compound,MECHANICAL WITHDRAWAL THRESHOLD [g]
1,"C=C(C)[C@@H]1CCC(C)=C[C@H]1c1c(O)cc(CCC)cc1O [CBDV, cannabidivarin]",7.8
2,"C=C(C)[C@@H]1CCC(C)=C[C@H]1c1c(O)cc(CCCCC)cc1O [CBD, cannabidiol, reference compound]",5.2

# Same assay, conditions: SNI mice, 5 mg/kg i.p. daily, DAY 3
row,Compound,MECHANICAL WITHDRAWAL THRESHOLD [g]
1,"C=C(C)[C@@H]1CCC(C)=C[C@H]1c1c(O)cc(CCC)cc1O [CBDV, cannabidivarin]",6.7
2,"C=C(C)[C@@H]1CCC(C)=C[C@H]1c1c(O)cc(CCCCC)cc1O [CBD, cannabidiol, reference compound]",5.0

# Same assay, conditions: SNI mice, 5 mg/kg i.p. daily, DAY 7
row,Compound,MECHANICAL WITHDRAWAL THRESHOLD [g]
1,"C=C(C)[C@@H]1CCC(C)=C[C@H]1c1c(O)cc(CCC)cc1O [CBDV, cannabidivarin]",6.6
2,"C=C(C)[C@@H]1CCC(C)=C[C@H]1c1c(O)cc(CCCCC)cc1O [CBD, cannabidiol, reference compound]",8.6

# Same assay, conditions: SNI mice, 5 mg/kg i.p. daily, DAY 14
row,Compound,MECHANICAL WITHDRAWAL THRESHOLD [g]
1,"C=C(C)[C@@H]1CCC(C)=C[C@H]1c1c(O)cc(CCC)cc1O [CBDV, cannabidivarin]",7.7
2,"C=C(C)[C@@H]1CCC(C)=C[C@H]1c1c(O)cc(CCCCC)cc1O [CBD, cannabidiol, reference compound]",5.3

# Same assay, conditions: both of the doses tested (2.5 and 5 mg/kg)
row,Compound,"overall efficacy, mechanical withdrawal"
1,"C=C(C)[C@@H]1CCC(C)=C[C@H]1c1c(O)cc(CCC)cc1O [CBDV, cannabidivarin]",highest mechanical withdrawal latency of all the cannabinoids
2,"C=C(C)[C@@H]1CCC(C)=C[C@H]1c1c(O)cc(CCCCC)cc1O [CBD, cannabidiol, reference compound]",relatively ineffective

# Same assay, conditions: mechanical withdrawal data
row,Compound,ability to treat neuropathic pain compared with CBD
1,"C=C(C)[C@@H]1CCC(C)=C[C@H]1c1c(O)cc(CCC)cc1O [CBDV, cannabidivarin]",superior to CBD
